Test results reported in patent publication US12404279B2, “Deubiquitinase inhibitors and methods of use thereof” (Molecure S.A., priority 2021, dated 2025).
Where a name gives a salt, the structure may show the parent alone.

The compounds below were run against full-length USP7 (Homo sapiens (Human), UniProt Q93009) (assay: Enzymatic assay to determine IC50 of USP7 inhibitors (Ubiquitin-Rhodamine 110 cleavage)). Settings: 0.5 nM USP7, 0.5 μM Ubiquitin-Rhodamine 110, 45 min at 37° C.
Format: biochemical
In short: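 Full-length USP7 (0.5 nM) in 50 mM HEPES pH 7.5, 150 mM NaCl, 1 mM DTT, 1 mg/ml BSA, 0.05% Tween20 was preincubated 15 min with DTT at room temperature before compound addition.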

Sequence of full-length USP7 (Q93009 whole entry): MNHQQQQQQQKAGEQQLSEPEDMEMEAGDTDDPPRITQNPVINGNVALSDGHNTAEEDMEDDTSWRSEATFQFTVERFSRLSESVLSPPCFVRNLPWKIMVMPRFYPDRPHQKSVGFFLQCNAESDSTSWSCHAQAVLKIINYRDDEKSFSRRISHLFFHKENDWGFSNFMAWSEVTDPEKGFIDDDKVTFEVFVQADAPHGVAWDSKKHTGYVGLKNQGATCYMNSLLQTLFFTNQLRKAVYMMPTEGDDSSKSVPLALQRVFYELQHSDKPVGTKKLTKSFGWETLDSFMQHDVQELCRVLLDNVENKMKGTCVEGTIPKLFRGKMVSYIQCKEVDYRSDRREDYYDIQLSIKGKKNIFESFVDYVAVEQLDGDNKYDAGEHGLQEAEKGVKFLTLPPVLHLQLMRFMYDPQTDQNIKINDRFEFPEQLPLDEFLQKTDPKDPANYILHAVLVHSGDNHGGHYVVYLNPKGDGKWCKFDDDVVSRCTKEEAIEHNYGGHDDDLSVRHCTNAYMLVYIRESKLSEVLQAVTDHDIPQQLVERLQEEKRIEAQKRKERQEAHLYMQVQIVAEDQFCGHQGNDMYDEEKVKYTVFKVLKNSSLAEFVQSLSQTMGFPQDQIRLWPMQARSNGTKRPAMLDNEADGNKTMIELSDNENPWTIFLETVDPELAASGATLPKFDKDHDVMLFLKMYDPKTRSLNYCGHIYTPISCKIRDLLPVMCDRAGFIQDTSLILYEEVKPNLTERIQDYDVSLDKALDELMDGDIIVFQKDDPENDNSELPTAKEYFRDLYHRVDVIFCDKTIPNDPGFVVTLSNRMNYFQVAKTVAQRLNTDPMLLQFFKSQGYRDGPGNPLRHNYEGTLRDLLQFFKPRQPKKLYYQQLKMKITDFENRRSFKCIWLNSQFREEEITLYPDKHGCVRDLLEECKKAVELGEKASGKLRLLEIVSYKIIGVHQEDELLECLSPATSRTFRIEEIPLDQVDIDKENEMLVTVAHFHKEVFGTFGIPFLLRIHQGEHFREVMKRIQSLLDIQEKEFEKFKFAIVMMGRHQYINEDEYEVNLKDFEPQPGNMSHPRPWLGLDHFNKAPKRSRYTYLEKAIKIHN

| SMILES | IC50 |
| --- | --- |
| CN[C@H]1CCCN(C(=O)c2c(C)cc(C(F)(F)F)nc2-c2ccnc3cc(CN4C(=O)C5C(C4=O)C5(C)C)sc23)C1 (stereo partly drawn) [Example 144, 6,6-dimethyl-3-((7-(4-methyl-3-((S)-3-(methylamino)piperidine-1-carbonyl)-6-(trifluoromethyl)pyridin-2-yl)thieno[3,2-b]pyridin-2-yl)methyl)-3-azabicyclo[3.1.0]hexane-2,4-dione trihydrochloride] | 1000 to 10000 nM |
| Cc1cc(Cl)cc(-c2ccnc3ccoc23)c1O[C@H]1CCCNC1 [Example 150, (S)-7-(5-chloro-3-methyl-2-(piperidin-3-yloxy)phenyl)furo[3,2-b]pyridine 2,2,2-trifluoroacetate] | 1000 to 10000 nM |
| Cc1c(Cl)cc(-c2ccnc3cc(CN4C(=O)C5C(C4=O)C5(C)C)sc23)n1C[C@@H]1CNCCO1 (stereo partly drawn) [Example 162, 3-((7-(4-chloro-5-methyl-1-(((S)-morpholin-2-yl)methyl)-1H-pyrrol-2-yl)thieno[3,2-b]pyridin-2-yl)methyl)-6,6-dimethyl-3-azabicyclo[3.1.0]hexane-2,4-dione hydrochloride] | < 500 nM |
| Cc1cc(C(F)(F)F)nc(-c2ccnc3cc(CN4C(=O)C5C(C4=O)C5(C)C)sc23)c1C(=O)N1C[C@@H]2CCN[C@@H]2C1 (stereo partly drawn) [Example 163, 6,6-dimethyl-3-((7-(4-methyl-3-((3aS,6aS)-octahydropyrrolo[3,4-b]pyrrole-5-carbonyl)-6-(trifluoromethyl)pyridin-2-yl)thieno[3,2-b]pyridin-2-yl)methyl)-3-azabicyclo[3.1.0]hexane-2,4-dione hydrochloride] | 500 to 1000 nM |

Second part, the compound after the results:

| IC50 | SMILES |
| --- | --- |
| < 500 nM | Cc1cc(C(F)(F)F)nc(-c2ccnc3cc(CN4C(=O)C5C(C4=O)C5(C)C)sc23)c1CN1CC[C@@H]2CNC[C@@H]21 (stereo partly drawn) [Example 153, 3-((7-(3-(((3aR,6aR)-hexahydropyrrolo[3,4-b]pyrrol-1(2H)-yl)methyl)-4-methyl-6-(trifluoromethyl)pyridin-2-yl)thieno[3,2-b]pyridin-2-yl)methyl)-6,6-dimethyl-3-azabicyclo[3.1.0]hexane-2,4-dione trihydrochloride] |
| < 500 nM | Cc1c([N+](=O)[O-])cc(-c2ccnc3cc(CN4C(=O)C5C(C4=O)C5(C)C)sc23)n1C[C@@H]1CNCCO1 (stereo partly drawn) [Example 154, 6,6-dimethyl-3-((7-(5-methyl-1-(((S)-morpholin-2-yl)methyl)-4-nitro-1H-pyrrol-2-yl)thieno[3,2-b]pyridin-2-yl)methyl)-3-azabicyclo[3.1.0]hexane-2,4-dione hydrochloride] |
| < 500 nM | Cc1cc(C(F)(F)F)nc(-c2ccnc3cc(CN4C(=O)C5C(C4=O)C5(C)C)sc23)c1C(=O)N1CC2CCC1CN2 (stereo not drawn) [Example 156, 3-((7-(3-(2,5-diazabicyclo[2.2.2]octane-2-carbonyl)-4-methyl-6-(trifluoromethyl)pyridin-2-yl)thieno[3,2-b]pyridin-2-yl)methyl)-6,6-dimethyl-3-azabicyclo[3.1.0]hexane-2,4-dione hydrochloride] |
| < 500 nM | Cc1cc(C(F)(F)F)nc(-c2ccnc3cc(CN4C(=O)C5C(C4=O)C5(C)C)sc23)c1CN1CC[C@@H]2CNC[C@@H]21 (stereo partly drawn) [Example 159, 3-((7-(3-(((3aR,6aR)-hexahydropyrrolo[3,4-b]pyrrol-1(2H)-yl)methyl)-4-methyl-6-(trifluoromethyl)pyridin-2-yl)thieno[3,2-b]pyridin-2-yl)methyl)-6,6-dimethyl-3-azabicyclo[3.1.0]hexane-2,4-dione trihydrochloride] |
| < 500 nM | CN[C@H]1CCN(Cc2c(C)cc(C(F)(F)F)nc2-c2ccnc3cc(CN4C(=O)C5C(C4=O)C5(C)C)sc23)C1 (stereo partly drawn) [Example 160, 6,6-dimethyl-3-((7-(4-methyl-3-(((S)-3-(methylamino)pyrrolidin-1-yl)methyl)-6-(trifluoromethyl)pyridin-2-yl)thieno[3,2-b]pyridin-2-yl)methyl)-3-azabicyclo[3.1.0]hexane-2,4-dione hydrochloride] |

Same assay, conditions: at 1 μM of the test compound; given where IC50 not determined yet; read-out: percent value of inhibition of USP7 activity

| SMILES | inhibition at 1 µM |
| --- | --- |
| Cc1cc(Cl)cc(-c2ccnc3nc(CN4C(=O)C5C(C4=O)C5(C)C)sc23)c1O[C@H]1CCCNC1 (stereo partly drawn) [Example 151, 3-((7-(5-chloro-3-methyl-2-(((S)-piperidin-3-yl)oxy)phenyl)thiazolo[4,5-b]pyridin-2-yl)methyl)-6,6-dimethyl-3-azabicyclo[3.1.0]hexane-2,4-dione dihydrochloride] | < 20% |
| CCOC(=O)c1c(C(F)(F)F)c(C)n(C[C@@H]2CNCCO2)c1-c1ccnc2cc(CN3C(=O)C4C(C3=O)C4(C)C)sc12 (stereo partly drawn) [Example 155, ethyl 2-(2-((6,6-dimethyl-2,4-dioxo-3-azabicyclo[3.1.0]hexan-3-yl)methyl)thieno[3,2-b]pyridin-7-yl)-5-methyl-1-(((S)-morpholin-2-yl)methyl)-4-(trifluoromethyl)-1H-pyrrole-3-carboxylate hydrochloride] | < 20% |
| CC1(C)C2C(=O)N(Cc3cc4nccc(-c5cc(F)cnc5O[C@H]5CCNC5)c4s3)C(=O)C21 (stereo partly drawn) [Example 157, 3-((7-(5-fluoro-2-(((S)-pyrrolidin-3-yl)oxy)pyridin-3-yl)thieno[3,2-b]pyridin-2-yl)methyl)-6,6-dimethyl-3-azabicyclo[3.1.0]hexane-2,4-dione dihydrochloride] | < 20% |

Continued, values first:

| inhibition at 1 µM | SMILES |
| --- | --- |
| < 20% | CC1(C)C2C(=O)N(Cc3cc4nccc(-c5cc(F)cnc5O[C@H]5CCCNC5)c4s3)C(=O)C21 (stereo partly drawn) [Example 152, 3-((7-(5-fluoro-2-(((S)-piperidin-3-yl)oxy)pyridin-3-yl)thieno[3,2-b]pyridin-2-yl)methyl)-6,6-dimethyl-3-azabicyclo[3.1.0]hexane-2,4-dione dihydrochloride] |
| < 20% | CC1(C)C2C(=O)N(Cc3cc4nccc(-c5cc(F)cnc5O[C@@H]5CCNC5)c4s3)C(=O)C21 (stereo partly drawn) [Example 158, 3-((7-(5-fluoro-2-(((R)-pyrrolidin-3-yl)oxy)pyridin-3-yl)thieno[3,2-b]pyridin-2-yl)methyl)-6,6-dimethyl-3-azabicyclo[3.1.0]hexane-2,4-dione hydrochloride] |
| 50 to 70% | CC1(C)C2C(=O)N(Cc3cc4nccc(-c5cc(Cl)cnc5O[C@H]5CCCNC5)c4s3)C(=O)C21 (stereo partly drawn) [Example 161, 3-((7-(5-chloro-2-(((S)-piperidin-3-yl)oxy)pyridin-3-yl)thieno[3,2-b]pyridin-2-yl)methyl)-6,6-dimethyl-3-azabicyclo[3.1.0]hexane-2,4-dione dihydrochloride] |

Same assay, conditions: read-out: percent value of inhibition of USP7 activity

| SMILES | inhibition at 1 µM |
| --- | --- |
| CC1(C)C2C(=O)N(Cc3cc4nccc(-c5ncc[nH]5)c4s3)C(=O)C21 (stereo not drawn) [Example 146, 3-((7-(1H-imidazol-2-yl)thieno[3,2-b]pyridin-2-yl)methyl)-6,6-dimethyl-3-azabicyclo[3.1.0]hexane-2,4-dione 2,2,2-trifluoroacetate] | < 20% |
| CC1(C)C2C(=O)N(Cc3cc4nccc(-c5nccn5CC5CNCCO5)c4s3)C(=O)C21 (stereo not drawn) [Example 147, 6,6-dimethyl-3-((7-(1-(morpholin-2-ylmethyl)-1H-imidazol-2-yl)thieno[3,2-b]pyridin-2-yl)methyl)-3-azabicyclo[3.1.0]hexane-2,4-dione 2,2,2-trifluoroacetate] | < 20% |
| CC1(C)C2C(=O)N(Cc3cc4nccc(-c5nc(C(F)(F)F)cn5C[C@@H]5CNCCO5)c4s3)C(=O)C21 (stereo partly drawn) [Example 149, 6,6-dimethyl-3-((7-(1-(((S)-morpholin-2-yl)methyl)-4-(trifluoromethyl)-1H-imidazol-2-yl)thieno[3,2-b]pyridin-2-yl)methyl)-3-azabicyclo[3.1.0]hexane-2,4-dione 2,2,2-trifluoroacetate] | < 20% |
